This note sets out measurements from patent US6989401B2, “Sulfonic acid derivatives of hydroxamic acids and their use as medicinal products” (Mitsubishi Pharma Corporation, priority 2000, dated 2006).

Read-outs that look alike come from different tables or passages of the source.

Assay [1] deals with LPS in E. coli culture supernatant (E. coli NIHJ JC-2 strain). Put plainly: Inhibitory effect on LPS in E. coli culture supernatant. Conditions: 24 hr; for inhibitory effect of compound on LPS in E. coli culture supernatant, relative ratio: relative ratio to the inhibitory ratio of the compound of Example 1 as 1.0, compound 100 μM. It is filed as cell-based. On the procedure:
One platinum loop of E. coli NIHJ JC-2 strain was inoculated into a test tube containing heart infusion broth (HIB, 5 mL) and cultured for about 24 hr. The bacterial culture broth was washed three times by centrifugation (3000 rpm, 15 min, 20° C., TOMY Seiko, RL-131) using 10 mL of fresh HIB medium for one cycle of washing. The washed bacteria were prepared to an about 10^7 colony forming unit (CFU)/mL with a fresh HIB medium, and 0.2 mL of the prepared bacterial suspension was inoculated into an Erlenmeyer flask containing a fresh HIB medium (18.8 mL) (i.e., to final bacterial concentration of about 10^5 CFU/mL). A solution (1 mL) of each compound prepared to a concentration of 2 mM (final concentration of compound 100 μM) was added to the culture broth containing the bacteria. Using a shaker (RGR-1 type, manufactured by IWASHIYA, Ltd.), shake culture was conducted at 37° C., and 2 mL of culture broth after 24 hr was sampled. The sampled culture broth was filtered (DISMIC, 0.45 μm, Advantech Toyo) and diluted 10^5-fold with sterile distilled water. The resulting suspension (200 μL) was added to a limulus reagent (LAL ES, Wako Pure Chemical Industries) and LPS concentration was measured using Toxinometer MT-285 (Wako Pure Chemical Industries) preheated to 37° C.
The LPS inhibitory ratio of the compound was calculated as a ratio of the LPS concentration of the compound addition group relative to the LPS concentration of the compound non-addition group. […] The inhibitory ratio of each compound is shown in the following in Table 1 as a relative ratio to the inhibitory ratio of the compound of Example 1 as 1.0.

The test system of assay [2] is LPS in rat peritonitis (CLP; cecal ligation and puncture) model. As to the kind of experiment: Inhibitory effect on LPS that increases in rat peritonitis (CLP) model. It is filed as in vivo. The note with it: iv, continuous tail vein infusion 2.5 mg/kg/hr. As for the experimental part:
Rat peritonitis (CLP; cecal ligation and puncture) model was prepared according to the method of Wichterman et al. (J. Surg. Res. 29, 189-201 <1980>). That is, a rat fasted overnight was anesthetized with ether, and a midline laparotomy was performed and the cecum was exposed. The cecum was ligated with a 3-0 silk thread at its base and perforated two times with an 18 G injection needle. The cecum was gently squeezed to extrude feces, which were spread around the abdomen, and the sectioned part was sutured. The animal was fixed in a Borrmann cage, and physiological saline or drug solution ([…]) was continuously given from the tail vein at an administration rate of 2.5 mg/kg/hr with an infusion pump (22 M, Harvard, 5 mL/kg/hr as a dose).
After 6 hr of the CLP treatment, the animal was sacrificed with carbonic acid gas. The abdominal cavity was washed by injecting phosphate buffered saline (PBS; 37° C., 10 mL) and the abdominal cavity washing containing ascites (PLF; peritoneal lavage fluid) was recovered. The recovery weight of the obtained PLF was measured, and PLF was centrifuged (1500 rpm for 5 min, 4° C.) to recover supernatant. The blood taken from the heart was centrifuged (3000 rpm for 10 min, 4° C.) using a serum separation tube, and the serum was recovered. The concentration of LPS in the abdominal cavity and serum was measured using Toxinometer MT-285 (Waco Pure Chemical Industries) preheated to 37° C., after diluting the supernatant and serum of the recovered PLF 10^5-fold and 10^2-fold, respectively, with sterile distilled water, and adding 200 μL thereof to a limulus reagent (LAL ES, Waco Pure Chemical Industries). The amount of LPS per abdominal cavity was calculated from amount of recovered abdominal cavity washing (PLF)×LPS concentration of PLF.
The LPS inhibitory ratio of the compound was calculated as the ratio of LPS concentration of the compound administration group to LPS concentration of the physiological saline administration group.

[3] abbreviates: peritoneal lavage fluid 6 hr after CLP, read-out: LPS inhibitory ratio (%) in abdominal cavity.
Setting [4] is: serum 6 hr after CLP, read-out: LPS inhibitory ratio (%) in blood.

For `CNC(=O)[C@H](Cc1ccc(OCCCS(=O)(=O)[O-])cc1)NC(=O)[C@H](CC(C)C)C(Cc1ccc2ccccc2c1)C(=O)NO.[Na+]` (single isomer, unassigned) [Example 13, 5-methyl-3(R)-{1(S)-methylcarbamoyl-2-[4-(3-sulfopropoxy)phenyl]ethylcarbamoyl}-2(R or S)-(2-naphthylmethyl)hexanohydroxamic acid sodium salt], the “inhibitory effect of compound on LPS in E. coli culture supernatant, relative ratio” value (“inhibitory effect of compound … relative ratio” below) in assay [1] was 0.87. In addition, the inhibition in vivo at 2.5 mg/kg/h is 44.7% in assay [2] (setting [3]) and 74.2% in assay [2] (setting [4]).

As for `CC(C)C[C@@H](C(=O)N[C@@H](Cc1ccccc1)C(=O)NCCCCS(=O)(=O)[O-])C(CN1C(=O)c2ccccc2C1=O)C(=O)NO.[Na+]` (single isomer, unassigned) [Example 21, 5-methyl-3(R)-[2-phenyl-1(S)-(4-sulfobutylcarbamoyl)ethylcarbamoyl]-2(R or S)-phthalimidomethylhexanohydroxamic acid sodium salt], the “inhibitory effect of compound … relative ratio” value in assay [1] amounted to 0.79. Moreover, the inhibition in vivo at 2.5 mg/kg/h in assay [2] (setting [3]) came out at 57.1%; in assay [2] (setting [4]), 55.9%.

In the case of `CC(C)C[C@@H](C(=O)N[C@@H](Cc1ccccc1)C(=O)NCCS(=O)(=O)[O-])C(CN1C(=O)c2ccccc2C1=O)C(=O)NO.[Na+]` (single isomer, unassigned) [Example 17, 5-methyl-3(R)-[2-phenyl-1(S)-(2-sulfoethylcarbamoyl)ethylcarbamoyl]-2(R or S)-phthalimidomethylhexanohydroxamic acid sodium salt], the “inhibitory effect of compound … relative ratio” value in assay [1] came out at 0.78. The inhibition in vivo at 2.5 mg/kg/h in assay [2] (setting [3]) was 14.4%; in assay [2] (setting [4]) it was 59.1%.

In the case of `CC(C)C[C@@H](C(=O)N[C@@H](Cc1ccccc1)C(=O)NCCCS(=O)(=O)[O-])C(CN1C(=O)c2ccccc2C1=O)C(=O)NO.[Na+]` (single isomer, unassigned) [Example 19, 5-methyl-3(R)-[2-phenyl-1(S)-(3-sulfopropylcarbamoyl)ethylcarbamoyl]-2(R or S)-phthalimidomethylhexanohydroxamic acid sodium salt], the “inhibitory effect of compound … relative ratio” value in assay [1] came to 0.67. The inhibition in vivo at 2.5 mg/kg/h in assay [2] (setting [3]) turned out to be 89.6%; in assay [2] (setting [4]), 67.8%.

On to `CNC(=O)[C@H](Cc1ccc(OCCCS(=O)(=O)[O-])cc1)NC(=O)[C@H](CC(C)C)C(CN1C(=O)c2ccccc2C1=O)C(=O)NO.[Na+]` (single isomer, unassigned) [Example 1, 5-methyl-3(R)-{1(S)-methylcarbamoyl-2-[4-(3-sulfopropoxy)phenyl]ethylcarbamoyl}-2(R or S)-phthalimidomethylhexanohydroxamic acid sodium salt], for which, in assay [1] (final concentration of compound 100 μM, shake culture 37° C., limulus reagent), the LPS inhibitory ratio is 46.5-65.8%. In assay [1] (sodium salt), the “inhibitory effect of compound … relative ratio” value is listed as 1.0. Besides, the results for the inhibition in vivo at 2.5 mg/kg/h in assay [2] (setting [3]) and in assay [2] (setting [4]) were 88.3% and 79.9%, respectively.
